Read-outs that look alike come from different tables or passages of the source. Ends that are not written are not given here.

One data set concerns LoVo colon cancer cells. Nature of the data set: MTT assay after transfection of S-oligonucleotides, LoVo. The note with it: six days after transfection. In kind it is cell-based, human. The method, then:
Cells plated onto 10-cm dishes (2×10^5 cells/dish) were transfected either with plasmid, or synthetic S-oligonucleotides of CXADRL1, GCUD1, or RNF43 using LIPOFECTIN Reagent (GIBCO BRL). Then the cells were cultured with the addition of an appropriate concentration of geneticin for six to twelve days. The cells were then fixed with 100% methanol and stained by Giemsa solution. Sequences of the S-oligonucleotides were as follows:
Cells plated at a density of 5×10^5 cells/100 mm dish were transfected in triplicate with sense or antisense S-oligonucleotides designated to suppress the expression of CXADRL1, GCUD1, or RNF43. […] Subsequently, the cells were lysed by the addition of 1 ml of 0.01 N HCl/10% SDS and the absorbance of lysates was measured with ELISA plate reader at a test wavelength of 570 nm (reference, 630 nm). The cell viability was represented by the absorbance compared to that of control cells.

A further data set has as its system RNF43. Briefly: Suppression of RNF43 expression by antisense S-oligonucleotide (semi-quantitative RT-PCR), LoVo cells. In kind it is cell-based, human. As to conditions: 12 hours after transfection. The method, then:
Total RNA was extracted with Qiagen RNeasy kit (Qiagen) or Trizol reagent (Life Technologies) according to the manufacturers' protocols. Ten-microgram aliquots of total RNA were reversely transcribed for single-stranded cDNAs using poly dT12-18 primer (Amersham Pharmacia Biotech) with Superscript II reverse transcriptase (Life Technologies). Each single-stranded cDNA preparation was diluted for subsequent PCR amplification by standard RT-PCR experiments carried out in 20 μl volumes of PCR buffer (TaKaRa). Amplification was conducted under following conditions: denaturing for 4 min at 94° C., followed by 20 (for GAPDH), 35 (for CXADRL1), 30 (for GCUD1), 30 (for RNF43) cycles of 94° C. for 30 s, 56° C. for 30 s, and 72° C. for 45 s, in GeneAmp PCR system 9700 (Perkin-Elmer, Foster City, Calif.). Primer sequences were; for GAPDH: forward, 5′-[…] (SEQ ID NO: 7) and reverse, 5′-[…] (SEQ ID NO: 8); for CXADRL1: forward, 5′-[…] (SEQ ID NO: 9) and reverse: 5′-TATAAACCAG CTGAGTCCAGAG (SEQ ID NO: 10); for GCUD1 forward: 5′-[…] (SEQ ID NO: 11) reverse: 5′-[…] (SEQ ID NO: 12), for RNF43 forward; 5′-[…]-3′ (SEQ ID NO: 13) and reverse; 5′-[…]-3′ (SEQ ID NO: 14).
Cells plated onto 10-cm dishes (2×10^5 cells/dish) were transfected either with plasmid, or synthetic S-oligonucleotides of CXADRL1, GCUD1, or RNF43 using LIPOFECTIN Reagent (GIBCO BRL). […]

The next data set relates to SNU475. Briefly: Cytotoxicity of CTLs against tumor cell line SNU475. As to conditions: SNU475 expresses CXADRL1, GCUD1 and HLA-A*0201. In kind it is cell-based, human.
The subject of another data set is MKN74. Briefly: Cytotoxicity of CTL clone against tumor cell line MKN74. In kind it is cell-based, human. The note with it: expresses CXADRL1 but not HLA-A*0201.
A further data set has as its system SNU475 cells. Briefly: Blocking assay with antibodies, target SNU475. In kind it is cell-based, human.
Data set [1] has as its system SNU-C4. Nature of the data set: Cytotoxicity of CTL clone against tumor cell line SNU-C4. As to conditions: HLA-A*0201 but not CXADRL1; RNF43 but little HLA-A24.
Description: (§1) Target cells were labeled with 100 μCi of Na2^51CrO4 (Perkin Elmer Life Sciences) for 1 h at 37° C. in a CO2 incubator. When peptide-pulsed targets were used, target cells were incubated with the addition of 20 μg/ml of the peptide for 16 h at 37° C. before the labeling with Na2^51CrO4. Target cells were rinsed and mixed with effectors at a final volume of 0.2 ml in round-bottom microtiter plates. The plates were centrifuged (4 minutes at 800×g) to increase cell-to-cell contact and placed in a CO2 incubator at 37° C. After 4 h of incubation, 0.1 ml of the supernatant was collected from each well and the radioactivity was determined with a gamma counter. In case of evaluating cytotoxicity against target cells that endogenously express RNF43, CXADRL1, or GCUD1, the cytolytic activity was tested in the presence of a 30-fold excess of unlabeled K562 cells to reduce any non-specific lysis due to NK-like effectors. […]
(§2) The percentage of specific cytotoxicity was determined by calculating the percentage of specific ^51Cr-release by the following formula: {(cpm of the test sample release−cpm of the spontaneous release)/(cpm of the maximum release−cpm of the spontaneous release)}×100. Spontaneous release was determined by incubating the target cells alone in the absence of effectors, and the maximum release was obtained by incubating the targets with 1N HCl. […]
For another data set, the system named is T2 cells (HLA-A*0201). Nature of the data set: 51Cr-release cytotoxicity assay of peptide-induced CTLs on T2 cells. The note with it: for Cytotoxic activity of peptide-induced CTL line/clone on non-pulsed target: T2 not pulsed with any peptide; for Cytotoxic activity of peptide-induced CTL line/clone on peptide-pulsed target: T2 pulsed with the peptide.
For a further data set, the system named is MKN45. Briefly: Cytotoxicity of CTL clone against tumor cell line MKN45. In kind it is cell-based, human. The note with it: expresses GCUD1 but not HLA-A*0201.
For data set [2], the system named is SNU-C4.
Description: as §1, §2

Description for HCT116: as §1, §2
Description for HT29: (§3) Target cells were labeled with 100 μCi of Na2^51CrO4 (Perkin Elmer Life Sciences) for 1 h at 37° C. in a CO2 incubator. When peptide-pulsed targets were used, target cells were incubated with the addition of 20 μg/ml of the peptide for 16 h at 37° C. before the labeling with Na2^51CrO4. Target cells were rinsed and mixed with effectors at a final volume of 0.2 ml in round-bottom microtiter plates. The plates were centrifuged (4 minutes at 800×g) to increase cell-to-cell contact and placed in a CO2 incubator at 37° C. After 4 h of incubation, 0.1 ml of the supernatant was collected from each well and the radioactivity was determined with a gamma counter. In case of evaluating cytotoxicity against target cells that endogenously express RNF43, CXADRL1, or GCUD1, the cytolytic activity was tested in the presence of a 30-fold excess of unlabeled K562 cells to reduce any non-specific lysis due to NK-like effectors. […] The MHC restriction was examined by blocking assay, measuring the inhibition of the cytotoxicity with anti-HLA-class I (W6/32) antibody and anti-HLA-class II antibody, or anti-CD4 antibody and anti-CD8 antibody (DAKO).
(§4) The percentage of specific cytotoxicity was determined by calculating the percentage of specific ^51Cr-release by the following formula: {(cpm of the test sample release−cpm of the spontaneous release)/(cpm of the maximum release−cpm of the spontaneous release)}×100. Spontaneous release was determined by incubating the target cells alone in the absence of effectors, and the maximum release was obtained by incubating the targets with 1N HCl. All determinants were done in duplicate, and the standard errors of the means were consistently below 10% of the value of the mean.
Description for MKN45: as §1, §2
Description for MKN74: as §1, §2
Description for SNU475 cells: as §3
Description for T2 cells (HLA-A*0201): as §3, §4
Description for TISI cells (HLA-A24/24): as §3, §4
Description for WiDR cells: as §3

For “5′-ACCACTCATGCTACCA-3′ (phosphorothioate, further chemistry not given here) [RNF43-AS1, antisense S-oligonucleotide]”, the “Number of surviving cells compared with RNF43-S1” value in the data set with LoVo colon cancer cells is “significantly fewer”. Further, the “Expression of RNF43 compared to control S-oligonucleotides (RNF43-S1)” value in the data set on RNF43 is given as “significantly suppressed”.
For ALSSGLYQC [CXADRL1-207, ALSSGLYQC], the “Cytotoxic activity of peptide-induced CTLs against SNU475” value in the data set on SNU475 is listed as “potent cytotoxic activity”. Also, the “Cytotoxic activity of CTL clone against MKN74” value in the data set with MKN74 is given as “not against”. The “Cytotoxicity of CTL clone against SNU475 with anti-HLA-Class I antibody and anti-CD8 antibody” value with SNU475 cells is “significantly inhibited”. Also, the “Cytotoxic activity of CTL clone against SNU-C4” value with SNU-C4 [1] is recorded as “not against”. In the data set on T2 cells (HLA-A*0201), the “Cytotoxic activity of peptide-induced CTL line/clone on non-pulsed target” value was “without showing any cytotoxic activity” and the “Cytotoxic activity of peptide-induced CTL line/clone on peptide-pulsed target” value is reported as “very potent cytotoxic activity”.
In the case of KMDAEHPEL [GCUD1-196, KMDAEHPEL], the “Cytotoxic activity of peptide-induced CTLs against SNU475” value with SNU475 was “potent cytotoxic activity”. The “Cytotoxic activity of CTL clone against MKN45” value in the data set with MKN45 was “not against”. Also, the “Cytotoxicity of CTL clone against SNU475 with anti-HLA-Class I antibody and anti-CD8 antibody” value with SNU475 cells is given as “significantly inhibited”. In the data set on T2 cells (HLA-A*0201), the “Cytotoxic activity of peptide-induced CTL line/clone on non-pulsed target” value is “without showing any cytotoxic activity” and the “Cytotoxic activity of peptide-induced CTL line/clone on peptide-pulsed target” value was “very potent cytotoxic activity”.
Turning to NSQPVWLCL [RNF43-721, NSQPVWLCL], in the data set on TISI cells (HLA-A24/24), the “Cytotoxic activity of CTL clone on irrelevant peptide pulsed TISI” value was “did not show any cytotoxic activity”, the “Cytotoxicity of CTL lines (9mer) ×2 Pep(+)” value is reported as 26%, the “Cytotoxicity of CTL lines (9mer) ×2 Pep(−)” value was found to be 0% and the “Cytotoxicity of CTL lines (9mer) ×20 Pep(+)” value was 68%. In addition, the “Cytotoxicity of CTL lines (9mer) ×20 Pep(−)” value in the data set with TISI cells (HLA-A24/24) was 0%. The “Cytotoxic activity of CTL clone against SNU-C4” value with SNU-C4 [2] is “did not show any cytotoxic activity”. In addition, in the data set on HT29, the “Cytotoxic activity of CTL clone on HT29” value is “potent cytotoxic activity”. Also, in the data set with WiDR, the “Cytotoxic activity of CTL clone on WiDR” value was “potent cytotoxic activity”. In addition, the “Cytotoxic activity of CTL clone on HCT116” value in the data set with HCT116 is recorded as “did not show any cytotoxic activity”. The “Cytotoxicity of CTL clone on WiDR with anti-HLA-Class I, CD3, and CD8 antibodies” value with WiDR cells was “significantly inhibited”.

Source of the values: patent US7847065B2, “CXADRL1 polypeptides relating to human cancers” (Oncotherapy Science, Inc., priority 2002, dated 2010).
